Laboratory results from ChEMBL document CHEMBL4422668 (Bioorg Med Chem Lett, 2019).
The source made the active and inactive calls. The rule behind the calls is not given here. Non-standard residues stand in square brackets, D forms with d. Residues, ends and D or L forms follow the SMILES beside them. NMeR = CN[C@@H](CCCNC(=N)N)C(=O)O; NMeF = CN[C@@H](Cc1ccccc1)C(=O)O; NMeT = CN[C@H](C(=O)O)[C@@H](C)O; NMeN = CN[C@@H](CC(N)=O)C(=O)O; NMeL = CN[C@@H](CC(C)C)C(=O)O; NMeS = CN[C@@H](CO)C(=O)O

Columns and labels:
[1] = Agonist activity at Streptococcus mutans SAB249 ComD receptor assessed as increase in cipB expression after 1 hr by beta-galactosidase reporter gene assay
[2] = system: Streptococcus mutans; experiment: Agonist activity at Streptococcus mutans SAB249 ComD receptor assessed as increase in cipB expression at 10 uM after 1 hr by beta-galactosidase reporter gene assay relative to control
[3] = system: Streptococcus mutans; experiment: Antagonist activity at Streptococcus mutans SAB249 ComD receptor assessed as inhibition of 18-CSP-induced cipB expression at 10 uM after 1 hr by beta-galactosidase reporter gene assay
[4] = system: Streptococcus mutans; experiment: (§1) Activation of comD quorum sensing system in Streptococcus mutans SMCC3 harboring comC deletion mutant assessed as reduction in inhibition zone of Streptococcus anginosus ATCC 33397 at 0.25 nM preincubated for 4 hrs followed by Streptococcus anginosus ATCC 33397 addition and measured after 24 hrs
[5] = system: Streptococcus mutans; experiment: Activation of comD quorum sensing system in Streptococcus mutans SMCC3 harboring comC deletion mutant assessed as reduction in inhibition zone of Streptococcus anginosus ATCC 33397 at 5 to 100 nM preincubated for 4 hrs followed by Streptococcus anginosus ATCC 33397 addition and measured after 24 hrs
[6] = system: Streptococcus mutans; experiment: as §1, with “0.25 to 1” for “0.25”

Compound	Activity [2] [%]	inhibition [3]	also measured
H-GSLSTFFRLFNRSFTQA-OH	–	–	EC50 [1]: 4.8 nM
H-GSLSAFFRAFNAAFTAA-OH	–	–	inhibition [4]: Active; inhibition [5]: Active
CC(C)C[C@H](NC(=O)[C@@H](N)CO)C(=O)N[C@@H](CO)C(=O)N[C@H](C(=O)N[C@@H](Cc1ccccc1)C(=O)N[C@@H](Cc1ccccc1)C(=O)N[C@@H](CCCNC(=N)N)C(=O)N[C@@H](CC(C)C)C(=O)N(C)[C@@H](Cc1ccccc1)C(=O)N[C@@H](CC(N)=O)C(=O)N[C@@H](CCCNC(=N)N)C(=O)N[C@@H](CO)C(=O)N[C@@H](Cc1ccccc1)C(=O)N[C@H](C(=O)N[C@@H](CCC(N)=O)C(=O)N[C@@H](C)C(=O)O)[C@@H](C)O)[C@@H](C)O (H-SLSTFFRL[NMeF]NRSFTQA-OH)	0	inactive	inhibition [5]: Active
H-GSLSAFFRAFNAAFTQA-OH	–	–	inhibition [4]: Active; inhibition [5]: Active
CC(C)C[C@H](NC(=O)[C@H](CCCNC(=N)N)NC(=O)[C@H](Cc1ccccc1)NC(=O)[C@H](Cc1ccccc1)NC(=O)[C@H]([C@@H](C)O)N(C)C(=O)[C@H](CO)NC(=O)[C@H](CC(C)C)NC(=O)[C@@H](N)CO)C(=O)N[C@@H](Cc1ccccc1)C(=O)N[C@@H](CC(N)=O)C(=O)N[C@@H](CCCNC(=N)N)C(=O)N[C@@H](CO)C(=O)N[C@@H](Cc1ccccc1)C(=O)N[C@H](C(=O)N[C@@H](CCC(N)=O)C(=O)N[C@@H](C)C(=O)O)[C@@H](C)O (H-SLS[NMeT]FFRLFNRSFTQA-OH)	–	–	EC50 [1]: > 1000 nM
H-SGSLSTFFRLFNRSFTQA-OH	100	–	EC50 [1]: 6.2 nM; inhibition [6]: inactive
CC(C)C[C@H](NC(=O)[C@H](CCCNC(=N)N)NC(=O)[C@H](Cc1ccccc1)NC(=O)[C@H](Cc1ccccc1)NC(=O)[C@@H](NC(=O)[C@H](CO)NC(=O)[C@H](CC(C)C)NC(=O)[C@@H](N)CO)[C@@H](C)O)C(=O)N[C@@H](Cc1ccccc1)C(=O)N[C@@H](CC(N)=O)C(=O)N[C@@H](CCCNC(=N)N)C(=O)N[C@@H](CO)C(=O)N(C)[C@@H](Cc1ccccc1)C(=O)N[C@H](C(=O)N[C@@H](CCC(N)=O)C(=O)N[C@@H](C)C(=O)O)[C@@H](C)O (H-SLSTFFRLFNRS[NMeF]TQA-OH)	17	inactive	–
CC(C)C[C@H](NC(=O)[C@H](CCCNC(=N)N)NC(=O)[C@H](Cc1ccccc1)NC(=O)[C@H](Cc1ccccc1)NC(=O)[C@@H](NC(=O)[C@H](CO)NC(=O)[C@H](CC(C)C)NC(=O)[C@@H](N)CO)[C@@H](C)O)C(=O)N[C@@H](Cc1ccccc1)C(=O)N(C)[C@@H](CC(N)=O)C(=O)N[C@@H](CCCNC(=N)N)C(=O)N[C@@H](CO)C(=O)N[C@@H](Cc1ccccc1)C(=O)N[C@H](C(=O)N[C@@H](CCC(N)=O)C(=O)N[C@@H](C)C(=O)O)[C@@H](C)O (H-SLSTFFRLF[NMeN]RSFTQA-OH)	11	inactive	–
CC(C)C[C@H](NC(=O)[C@H](CCCNC(=N)N)NC(=O)[C@H](Cc1ccccc1)NC(=O)[C@H](Cc1ccccc1)NC(=O)[C@@H](NC(=O)[C@H](CO)NC(=O)[C@H](CC(C)C)NC(=O)[C@@H](N)CO)[C@@H](C)O)C(=O)N[C@@H](Cc1ccccc1)C(=O)N[C@@H](CC(N)=O)C(=O)N[C@@H](CCCNC(=N)N)C(=O)N(C)[C@@H](CO)C(=O)N[C@@H](Cc1ccccc1)C(=O)N[C@H](C(=O)N[C@@H](CCC(N)=O)C(=O)N[C@@H](C)C(=O)O)[C@@H](C)O (H-SLSTFFRLFNR[NMeS]FTQA-OH)	12	inactive	–
CC(C)C[C@H](NC(=O)[C@H](CCCNC(=N)N)NC(=O)[C@H](Cc1ccccc1)NC(=O)[C@H](Cc1ccccc1)NC(=O)[C@@H](NC(=O)[C@H](CO)NC(=O)[C@H](CC(C)C)NC(=O)[C@@H](N)CO)[C@@H](C)O)C(=O)N[C@@H](Cc1ccccc1)C(=O)N[C@@H](CC(N)=O)C(=O)N(C)[C@@H](CCCNC(=N)N)C(=O)N[C@@H](CO)C(=O)N[C@@H](Cc1ccccc1)C(=O)N[C@H](C(=O)N[C@@H](CCC(N)=O)C(=O)N[C@@H](C)C(=O)O)[C@@H](C)O (H-SLSTFFRLFN[NMeR]SFTQA-OH)	5	inactive	inhibition [5]: Active

Now from value to compound, other results behind:

Activity [2] [%]	inhibition [3]	Compound	also measured
45	inactive	CC(C)C[C@H](NC(=O)[C@@H](N)CO)C(=O)N[C@@H](CO)C(=O)N[C@H](C(=O)N[C@@H](Cc1ccccc1)C(=O)N[C@@H](Cc1ccccc1)C(=O)N(C)[C@@H](CCCNC(=N)N)C(=O)N[C@@H](CC(C)C)C(=O)N[C@@H](Cc1ccccc1)C(=O)N[C@@H](CC(N)=O)C(=O)N[C@@H](CCCNC(=N)N)C(=O)N[C@@H](CO)C(=O)N[C@@H](Cc1ccccc1)C(=O)N[C@H](C(=O)N[C@@H](CCC(N)=O)C(=O)N[C@@H](C)C(=O)O)[C@@H](C)O)[C@@H](C)O (H-SLSTFF[NMeR]LFNRSFTQA-OH)	–
38	inactive	CC(C)C[C@H](NC(=O)[C@H](CCCNC(=N)N)NC(=O)[C@H](Cc1ccccc1)NC(=O)[C@H](Cc1ccccc1)NC(=O)[C@@H](NC(=O)[C@H](CO)NC(=O)[C@H](CC(C)C)NC(=O)[C@@H](N)CO)[C@@H](C)O)C(=O)N[C@@H](Cc1ccccc1)C(=O)N[C@@H](CC(N)=O)C(=O)N[C@@H](CCCNC(=N)N)C(=O)N[C@@H](CO)C(=O)N[C@@H](Cc1ccccc1)C(=O)N(C)[C@H](C(=O)N[C@@H](CCC(N)=O)C(=O)N[C@@H](C)C(=O)O)[C@@H](C)O (H-SLSTFFRLFNRSF[NMeT]QA-OH)	–
29	inactive	CC(C)C[C@H](NC(=O)[C@@H](N)CO)C(=O)N[C@@H](CO)C(=O)N[C@H](C(=O)N[C@@H](Cc1ccccc1)C(=O)N[C@@H](Cc1ccccc1)C(=O)N[C@@H](CCCNC(=N)N)C(=O)N(C)[C@@H](CC(C)C)C(=O)N[C@@H](Cc1ccccc1)C(=O)N[C@@H](CC(N)=O)C(=O)N[C@@H](CCCNC(=N)N)C(=O)N[C@@H](CO)C(=O)N[C@@H](Cc1ccccc1)C(=O)N[C@H](C(=O)N[C@@H](CCC(N)=O)C(=O)N[C@@H](C)C(=O)O)[C@@H](C)O)[C@@H](C)O (H-SLSTFFR[NMeL]FNRSFTQA-OH)	–
100	–	H-SLSTFFRLFNRSFTQA-OH	EC50 [1]: 7.9 nM
